The assay addresses T1, Thioredoxin (Homo sapiens, UniProt P10599).
T1 sequence (P10599 whole entry): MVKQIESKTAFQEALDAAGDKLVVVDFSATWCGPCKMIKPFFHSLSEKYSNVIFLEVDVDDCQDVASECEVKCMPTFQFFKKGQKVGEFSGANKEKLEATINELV
Put plainly: In vitro Assay. As to conditions: pH 7.6. How it is done: The method of determining thioredoxin activity is based on the reduction of insulin by thioredoxin. Thioredoxin is reconstituted is by thioredoxin reductase, with NADPH. The resulting free thiol -SH groups react with 5,5′-dithiobis-2-nitrobenzoic acid (DTNB). The termination of the reaction results in the formation of a […]. […] The reaction was performed at 37° C. over 30 min. in a buffer containing 50 mM Tris-HCl and 20 mM EDTA at a pH of 7.6.

SMILES strings stand for the structures.

As a reminder, the IC50 is the midpoint of a concentration-inhibition curve. High values mean a need for much substance, low ones inhibition by little substance. In the case of `C=C(COC(=O)c1c(C(F)(F)F)cccc1C(F)(F)F)C(=O)NCc1ccccc1` [US9018255, 8a], the IC50 is 8.6 µM.
